{"source": "patent US10434074B2", "about": "“Peptide and small molecule agonists of EPHA and uses thereof” (CASE WESTERN RESERVE UNIVERSITY, priority 2004, dated 2019)", "key": {"[1]": {"target": "T1, EphA2 (Homo sapiens, UniProt P29317)", "T1 sequence (P29317 24-976)": "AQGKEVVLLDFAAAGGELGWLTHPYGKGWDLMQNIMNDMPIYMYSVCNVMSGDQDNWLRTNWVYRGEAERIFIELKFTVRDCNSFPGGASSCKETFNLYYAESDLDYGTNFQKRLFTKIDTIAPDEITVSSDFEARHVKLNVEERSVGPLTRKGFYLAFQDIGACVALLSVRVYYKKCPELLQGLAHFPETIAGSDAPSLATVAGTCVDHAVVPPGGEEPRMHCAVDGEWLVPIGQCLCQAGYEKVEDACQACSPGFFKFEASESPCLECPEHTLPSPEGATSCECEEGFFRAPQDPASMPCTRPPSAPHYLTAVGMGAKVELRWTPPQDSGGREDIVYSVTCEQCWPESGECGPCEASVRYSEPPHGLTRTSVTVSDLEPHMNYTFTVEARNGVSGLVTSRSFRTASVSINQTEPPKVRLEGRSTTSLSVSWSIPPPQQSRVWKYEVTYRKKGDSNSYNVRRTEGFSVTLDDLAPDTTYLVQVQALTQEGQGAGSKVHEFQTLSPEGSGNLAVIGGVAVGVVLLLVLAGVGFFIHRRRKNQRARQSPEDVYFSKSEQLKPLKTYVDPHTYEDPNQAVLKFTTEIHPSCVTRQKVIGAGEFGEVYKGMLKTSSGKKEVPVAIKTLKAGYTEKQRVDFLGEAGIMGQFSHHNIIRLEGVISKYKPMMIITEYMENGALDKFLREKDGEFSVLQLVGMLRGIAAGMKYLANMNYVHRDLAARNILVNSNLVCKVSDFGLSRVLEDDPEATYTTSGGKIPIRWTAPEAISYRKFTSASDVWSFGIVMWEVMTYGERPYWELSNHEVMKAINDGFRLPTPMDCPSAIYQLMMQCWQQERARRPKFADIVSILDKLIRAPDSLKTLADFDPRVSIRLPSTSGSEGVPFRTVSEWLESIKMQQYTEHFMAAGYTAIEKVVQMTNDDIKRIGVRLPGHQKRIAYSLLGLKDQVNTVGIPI", "test": "EphA2 tyrosine phosphorylation (activation) in PC3 cells, immunoprecipitation and anti-phosphotyrosine blot", "type": "cell-based", "set-up": "We have previously identified EphA2 as the primary EphA kinase expressed in PC-3 cells; endogenous in cells; host or cells: PC-3 (PC3) and DU-145 cells", "conditions": "for EphA2 activation (agonist function): PC-3 cells, PY99 blot; for EphA2 tyrosine phosphorylation: several different cell lines", "description": "FIG. 9 illustrates EP1 is an EphA2 Kinase Agonist. PC3 cells (1×10^6 cells/ml) were stimulated with different concentrations of EP1-Fc, GST-EP1, or ephrin-A1-Fc for 10 min. EphA2 was precipitated with anti-EphA2. The immune complex was blotted for PY to detect EphA2 activation (top panel), or for EphA2 to show equal loading (lower panel). Data represents one of three similar experimental results.\nFIG. 15 illustrates Identification of EP1 residues critical for EphA2 activation. Four out of five EP1 residues that align with receptor-binding regions of ephrins are critical for EphA2 activation. Mutation to alanine was performed at the indicated positions (see letters in FIG. 15 for reference), and the resultant EP1-Fc mutants were used to stimulate PC3 cells for 10 min at […] for ability to activate EphA2.\nPC-3 cells were stimulated with the indicated concentration of dobutamine. EphA2 was immunoprecipitated and tested for activation status by blotting with anti-phosphotyrosine (PY99).\nCells cultured in 6 well plates at 70-80% confluence were stimulated with 0.5 μg/ml Fc, 1 μg/ml epnrinA1-Fc or 20 ng/ml HGF/SF or their combinations as indicated. After stimulation, cells were lysed in RIPA buffer (20 mM Tris, pH7.4, 125 mM NaCl, 20 mM NaF, 0.1% SDS, 10% glycerol, 0.5% sodium deoxycholate, and 1% TX-100, 0.5 mM Na3VO4) containing protease inhibitors (1 mM phenylmethylsulphonyl fluoride, and 2 μg/ml each of aprotinin and leupeptin). Cell lysates were clarified by centrifugation at 13,000 rpm for 5 min. Immunoprecipitation was carried out by adding anti-EphA2 antibody to clarified cell lysates and incubated for 1 hour at 4° C. The immunocomplex was captured using γ-bind beads (Pharmacia). Cell lysates or precipitated proteins were separated on 4-20% Tris-glycine gels (Invitrogen) and transferred to Immobilon-P PVDF membranes (Millipore). […] For quantitative analysis, band densities were measured using KODAK 1D imagine analysis software (Eastman Kodak Company)."}, "[2]": {"target": "EphA2 kinase ligand-binding domain (Homo sapiens, UniProt P29317)", "sequence (P29317 28-206 limits assumed)": "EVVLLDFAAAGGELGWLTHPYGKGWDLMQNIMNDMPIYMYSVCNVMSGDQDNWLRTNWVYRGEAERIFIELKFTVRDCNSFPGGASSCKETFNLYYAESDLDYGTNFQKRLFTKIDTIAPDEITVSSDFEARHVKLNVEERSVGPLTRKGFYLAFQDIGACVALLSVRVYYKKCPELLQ", "test": "BIAcore binding to immobilized EphA2 ligand-binding domain", "conditions": "EphA2 LBD immobilized on sensor chip", "description": "A) EphA2 activation by labetalol. […] The increasing concentrations of labetalol (0, […], 1.25 mM and 2.5 mM) were injected over EphA2 kinase ligand-binding domain immobilized on the sensor chip.\nA) Doxazosin activates EphA2."}, "[3]": {"system": "EphA2", "conditions": "several breast cancer cell lines; cited from earlier work"}, "[4]": {"system": "PC3 or pRNS-1 cells", "test": "3H-thymidine incorporation", "type": "cell-based", "conditions": "overnight stimulation", "description": "Subconfluent PC3 or pRNS-1 cells were stimulated with the indicated reagents overnight. Next day cells were labeled with ^3H-thymidine for 2 hours. ^3H-thymidine incorporation into isolated DNA synthesis was determined by scintillation counting."}, "[5]": {"system": "pRNS-1 prostate epithelial cells", "test": "Clonal growth, crystal violet staining", "type": "cell-based", "conditions": "10 days", "description": "About 80 pRNS-1 prostate epithelial cells were seeded into each well on 12-well dishes in the presence of indicated concentrations of ephrin-A1-Fc. Cells were cultured for 10 days. Clonal growth was visualized by crystal violet staining."}, "[6]": {"target": "T1, EphA2", "test": "Precipitation of 125I-labeled PC3 cell proteins / Western blot (binding specificity)", "set-up": "We have previously identified EphA2 as the primary EphA kinase expressed in PC-3 cells; endogenous in cells; host or cells: PC-3 (PC3)", "conditions": "PC3 cell lysates", "description": "FIGS. 8(A-B) illustrate Specific Binding of EP1-Fc to EphA2 Receptor. A: ^125I labeling of PC3 cells. PC3 cells (10×10^6) were labeled with 125I (0.5 mCi). Then, cell lysates were incubated with EP1-Fc fusion peptide, ephrin-A1-Fc (EA1-Fc), or human Fc as indicated. Equal amount of cell lysate was used in each experimental group. […] B: Western Blotting Analysis. PC3 cell lysates were incubated with EP1-Fc fusion protein, ephrin-A1 protein, or human Fc. The immune complexes were blotted with anti-EphA2. EP1 specifically precipitated EphA2."}, "[7]": {"system": "GFP-PC-3 cells", "test": "PC3 xenograft growth in nude mice", "type": "in vivo", "set-up": "s.c. tumor growth: dose or concentration left out as unconfirmed", "conditions": "for s.c. tumor growth: vs human IgG", "description": "Frozen sections were stained with biotinylated rabbit anti-human Fc, and HRP-conjugated streptoavidin."}, "[8]": {"system": "PC3 cells", "test": "Cell rounding", "type": "cell-based, human", "conditions": "10 min", "description": "PC3 cells cultured on coverslips were stimulated with the indicated concentrations of ephrinA1-Fc, EP1-Fc of Fc for 10 min. Cells were then fixed and photographed."}, "[9]": {"system": "ERK1/2", "test": "Inhibition of ERK1/2 (MAPK) in PC3 cells, anti-p-ERK1/2 blot", "type": "cell-based, human", "description": "FIG. 11 illustrates Activation of EphA2 downstream signaling by EP1-Fc. PC3 cells were stimulated with the indicated concentrations of ephrinA1-Fc or EP1-Fc fusion proteins and lysed in RIPA buffer. EphA2 activation status was examined by immunoprecipiting EphA2 and blotting for phosphotyrosine or EphA2 itself (top panel). Inhibition of ERK1/2, a downstream signaling event of EphA2 characterized in our lab, was examined by blotting total cell lysates with anti-p-ERK1/2."}, "[10]": {"system": "integrin-mediated cell adhesion", "test": "Integrin-mediated cell adhesion to fibronectin", "type": "cell-based"}}, "note": "Entries after “also recorded” stand apart in the source; their conditions may differ. Where no end group is shown, it is not given here."}
{"compound": "CC(CCc1ccc(O)cc1)NCCc1ccc(O)c(O)c1", "note": "(stereo not shown) [Dobutamine]", "values": [{"measurement": "EphA2 activation (agonist function)", "setting": "[1]", "value": "EphA2 agonists"}]}
{"compound": "COc1cc2nc(N3CCN(C(=O)C4COc5ccccc5O4)CC3)nc(N)c2cc1OC", "note": "(stereo not shown) [Doxazosin]", "values": [{"measurement": "BIAcore binding to EphA2", "setting": "[2]", "value": "direct binding"}, {"measurement": "EphA2 activation (agonist function)", "setting": "[1]", "value": "EphA2 agonists"}]}
{"compound": "CC(CCc1ccccc1)NCC(O)c1ccc(O)c(C(N)=O)c1", "note": "(stereo not shown) [Labetalol]", "values": [{"measurement": "BIAcore binding to EphA2", "setting": "[2]", "value": "binding curves for interaction of labetalol with EphA2 kinase"}, {"measurement": "EphA2 activation (agonist function)", "setting": "[1]", "value": "EphA2 agonists"}]}
{"compound": "N#CC(=C(/N)Sc1ccccc1N)/C(C#N)=C(/N)Sc1ccccc1N", "note": "[U1026]", "values": [{"measurement": "EphA2 expression", "setting": "[3]", "value": "reduced EphA2 expression"}]}
{"compound": "(di-meo-isoquinolin-1-ylmethyl)-et-di-meo-pyrido(2,1-a)isoquinolin, hydrobromide S120103", "values": [{"measurement": "EphA2 activation (agonist function)", "setting": "[1]", "value": "EphA2 agonistic compound"}]}
{"compound": "EP1-Fc: recombinant EP1 fused to Fc, dimeric (RRCVWSTNVYSMEPALFCAA; not fully specified; cysteine pairing not given here; also: fused to Fc, dimeric)", "values": [{"measurement": "cell proliferation / growth", "setting": "[4]", "value": "Inhibition of cell proliferation"}, {"measurement": "clonal cell growth", "setting": "[5]", "value": "Inhibition of cell growth"}, {"measurement": "specificity of binding among cell surface proteins", "setting": "[6]", "value": "only bound to EphA2"}, {"measurement": "targeting to tumors", "setting": "[7]; frozen sections stained with anti-human Fc", "value": "target to GFP-PC-3 tumors"}, {"measurement": "tumor growth after three weeks of treatment", "setting": "[7]; i.p.", "value": "lack of effects after three weeks of treatment"}, {"measurement": "s.c. tumor growth", "setting": "[7]; i.p.", "value": "moderate inhibitory effects on PC3 xenograft growth"}, {"measurement": "s.c. tumor growth", "setting": "[7]; i.p., listed as Ep1-Fc", "value": "could have suppressive effect on the growth of prostate cancer xenograft"}, {"measurement": "cell morphology (rounding)", "setting": "[8]", "value": "adapt a round morphology; also recorded: induced PC3 cell rounding"}, {"measurement": "EphA2 tyrosine phosphorylation", "setting": "[1]", "value": "induces dose-dependent EphA2 tyrosine phosphorylation"}]}
{"compound": "EphA2-binding peptide from X2CX14CX2 phage display library, SEQ ID NO: 1, RRCVWSTNVYSMEPA LFCAA (RRCVWSTNVYSMEPALFCAA) [EP1]", "values": [{"measurement": "mitogen-activated protein kinase (MAPK)", "setting": "[9]", "value": "inhibited mitogen-activated protein kinase"}, {"measurement": "integrin function and cell adhesion", "setting": "[10]", "value": "suppressed integrin function and causes reduced cell adhesion"}, {"measurement": "cell proliferation / growth", "setting": "[4]", "value": "inhibited cancer cell growth"}, {"measurement": "specificity of binding among cell surface proteins", "setting": "[6]", "value": "EphA2 was the only cell surface protein that was targeted by EP1"}, {"measurement": "EphA2 tyrosine phosphorylation", "setting": "[1]", "value": "binds to EphA2 without activating it"}]}
{"compound": "GST-EP1: recombinant EP1 fused to GST (RRCVWSTNVYSMEPALFCAA; cysteine pairing not given here; also: fused to GST)", "values": [{"measurement": "EphA2 tyrosine phosphorylation", "setting": "[1]", "value": "induces dose-dependent EphA2 tyrosine phosphorylation"}]}
